We go through three molecules from PubChem BioAssay (NCI).

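Compound exposure: 48 hours, 5 concentrations, 96-well plates. GI50 is the concentration that inhibits growth by half. Definition used: TGI = concentration required for complete inhibition of growth.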 A value given as a limit tells only on which side of the number the result lay.

Some test systems named below: SK-MEL-28 melanoma; KM12 colon; RXF 393 renal; A549 NSCLC; OVCAR-8 ovarian; SW-620 colon; NCI-H522 lung; U251 CNS; SR leukemia; SF-268 CNS.
Common to all, as to experiment: growth of human tumour cells (NCI), 48 h

For the molecule `COc1cc2cc(Oc3ccc(NC(=O)Nc4ccc(F)c(C(F)(F)F)c4)cc3)c(C)nc2cc1OCCN1CCCCC1`, the figures for the GI50 in the test on SK-MEL-28 melanoma and in the test with KM12 colon were 1.65 µM and 1.77 µM, respectively. Further, the results for the TGI in the test with SK-MEL-28 melanoma and in the test with KM12 colon were 3.04 µM and 3.3 µM, respectively.
For `CCOC(=O)c1ncoc1[C@H]1COC(C)(C)O1`, the TGI in the test with RXF 393 renal, in the test on A549 NSCLC, with OVCAR-8 ovarian, in the test with SW-620 colon, in the test on NCI-H522 lung and in the test on U251 CNS was above 100 µM throughout. Besides, the TGI in the test on SR leukemia and in the test with SF-268 CNS was above 100 µM throughout.
Take `O=C(c1ccccc1)c1nn(-c2ccc(Cl)cc2)c2nc3nc(-c4ccccc4)cc(=O)n3nc12`: the GI50 in the test with RXF 393 renal is 68.9 µM; in the test on SK-MEL-28 melanoma, 53.7 µM; in the test on A549 NSCLC, 66.3 µM; with OVCAR-8 ovarian, 48.3 µM; with KM12 colon, 31.9 µM; with SW-620 colon it was 49.5 µM. The GI50 with NCI-H522 lung was 31.2 µM; in the test on U251 CNS, 31.5 µM; in the test on SR leukemia, 22.9 µM; with SF-268 CNS, 42.2 µM. Also, the TGI in the test on RXF 393 renal, with SK-MEL-28 melanoma, with A549 NSCLC, in the test with OVCAR-8 ovarian, with KM12 colon and in the test with SW-620 colon was above 100 µM throughout. Besides, the TGI in the test on NCI-H522 lung is above 100 µM; with U251 CNS, above 100 µM; in the test on SR leukemia, 57.6 µM; in the test on SF-268 CNS it was above 100 µM.
